ChEMBL document CHEMBL1201862, “PubChem BioAssay data set” (2004)
Each block holds one molecule with its values, some of them ahead of it. Activity calls are given as the source filed them.

Experiments:
[1] = molecular target: T1, Neuropeptides B/W receptor type 1 (Homo sapiens, UniProt P48145); test: Fluorescence-based dose response cell-based high throughput screening assay to identify antagonists of the G-protein coupled receptor 7 (GPR7). [Related pubchem assays: 1952 (Screening assay (GPR7 antagonists).), 1880 (Summary AID.)]; format: functional
T1 sequence (P48145 whole entry): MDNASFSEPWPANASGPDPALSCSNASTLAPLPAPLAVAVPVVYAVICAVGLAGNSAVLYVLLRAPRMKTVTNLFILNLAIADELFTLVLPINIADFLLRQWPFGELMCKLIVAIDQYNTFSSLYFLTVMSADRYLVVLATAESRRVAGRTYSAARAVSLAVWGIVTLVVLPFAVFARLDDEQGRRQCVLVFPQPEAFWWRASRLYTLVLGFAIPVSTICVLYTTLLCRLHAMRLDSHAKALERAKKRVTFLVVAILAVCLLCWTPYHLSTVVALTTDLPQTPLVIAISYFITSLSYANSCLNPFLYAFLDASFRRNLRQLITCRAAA

[2] = molecular target: T2, Melanin-concentrating hormone receptor 1 (Homo sapiens, UniProt Q99705); test: Fluorescence-based counterscreen for antagonists of the G-protein coupled receptor 7 (GPR7): cell-based high throughput dose response assay to identify antagonists of the melanin-concentrating hormone receptor 1 (MCHR1).; format: functional
T2 sequence (Q99705 whole entry): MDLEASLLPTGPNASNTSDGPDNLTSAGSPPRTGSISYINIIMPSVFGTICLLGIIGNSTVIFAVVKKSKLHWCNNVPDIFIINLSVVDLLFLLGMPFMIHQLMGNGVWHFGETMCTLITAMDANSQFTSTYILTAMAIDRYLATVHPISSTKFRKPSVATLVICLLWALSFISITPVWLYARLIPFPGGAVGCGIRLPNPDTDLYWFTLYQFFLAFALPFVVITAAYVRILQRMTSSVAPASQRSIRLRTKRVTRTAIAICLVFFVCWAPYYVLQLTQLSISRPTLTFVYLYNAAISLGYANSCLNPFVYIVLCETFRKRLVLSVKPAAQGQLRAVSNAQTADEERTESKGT

[3] = molecular target: T2, Melanin-concentrating hormone receptor 1; test: Late-stage fluorescence-based counterscreen for antagonists of the G-protein coupled receptor 7 (GPR7): cell-based dose response assay to identify antagonists of the melanin-concentrating hormone receptor 1 (MCHR1). [Related pubchem assays (depositor defined):AID1861, AID1880, AID1952, AID2148, AID2251, AID2257, AID485339]; format: functional
[4] = molecular target: T1, Neuropeptides B/W receptor type 1; test: human NPBW1 receptor blockade, IC50 – cell-based, fluorescence, dose response, late-stage follow-up (AID 463251); format: functional
[5] = A549 cell cytotoxicity, dose response, cytotoxicity control, plate reader, cherry-pick, antagonist series (AID 743412); format: functional, cell-based
[6] = toxicity toward HepG2 liver cells – cell-based, plate reader, cherry-pick, antagonist series, cytotoxicity control, dose response (AID 743416); format: functional
[7] = viability loss in HEK293 cells – cell-based, plate reader, cherry-picked samples, cytotoxicity control, dose response (AID 743446); format: functional
[8] = molecular target: T3, Coagulation factor XII (Homo sapiens, UniProt P00748); test: activated coagulation factor XII inhibitor potency, concentration-effect curve, cell-free (AID 716); format: functional
T3 sequence (P00748 whole entry): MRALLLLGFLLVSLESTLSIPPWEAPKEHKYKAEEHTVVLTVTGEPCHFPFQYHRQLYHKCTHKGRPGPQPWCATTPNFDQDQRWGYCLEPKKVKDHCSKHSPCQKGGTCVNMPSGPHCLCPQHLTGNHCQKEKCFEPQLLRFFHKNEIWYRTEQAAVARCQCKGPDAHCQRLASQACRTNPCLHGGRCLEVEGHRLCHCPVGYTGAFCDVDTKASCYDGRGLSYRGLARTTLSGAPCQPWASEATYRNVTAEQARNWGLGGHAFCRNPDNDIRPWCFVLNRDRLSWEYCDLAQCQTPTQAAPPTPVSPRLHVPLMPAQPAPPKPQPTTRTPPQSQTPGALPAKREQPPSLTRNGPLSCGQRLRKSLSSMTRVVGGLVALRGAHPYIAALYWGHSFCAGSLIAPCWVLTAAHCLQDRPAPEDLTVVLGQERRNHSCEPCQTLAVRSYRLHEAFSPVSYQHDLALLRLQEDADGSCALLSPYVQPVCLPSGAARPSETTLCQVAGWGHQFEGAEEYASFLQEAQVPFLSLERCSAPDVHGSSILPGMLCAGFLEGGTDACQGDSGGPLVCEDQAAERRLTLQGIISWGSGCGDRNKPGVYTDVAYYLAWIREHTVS

[9] = molecular target: T4, Mannose-6-phosphate isomerase (Homo sapiens, UniProt P34949); test: phosphomannose isomerase inhibition – biochemical, fluorescence intensity, confirmation (AID 1535)
T4 sequence (P34949 whole entry): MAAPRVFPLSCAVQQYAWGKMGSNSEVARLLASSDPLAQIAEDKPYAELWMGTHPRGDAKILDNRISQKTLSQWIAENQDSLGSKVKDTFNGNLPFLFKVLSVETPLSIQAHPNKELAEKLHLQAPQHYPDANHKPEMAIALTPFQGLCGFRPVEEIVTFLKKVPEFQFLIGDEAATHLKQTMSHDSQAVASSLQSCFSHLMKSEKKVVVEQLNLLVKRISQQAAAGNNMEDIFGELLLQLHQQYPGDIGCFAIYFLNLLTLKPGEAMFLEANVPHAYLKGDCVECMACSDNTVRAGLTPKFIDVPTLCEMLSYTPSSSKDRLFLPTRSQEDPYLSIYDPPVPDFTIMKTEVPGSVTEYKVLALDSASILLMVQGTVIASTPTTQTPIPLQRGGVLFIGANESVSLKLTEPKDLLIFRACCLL

[10] = molecular target: Phosphoethanolamine/phosphocholine phosphatase (Homo sapiens, UniProt Q8TCT1); test: SAR assay for compounds that inhibit PHOSPHO1. [Related pubchem assays (depositor defined):AID1545, AID1565, AID1574]
Chain of Phosphoethanolamine/phosphocholine phosphatase (Q8TCT1 whole entry): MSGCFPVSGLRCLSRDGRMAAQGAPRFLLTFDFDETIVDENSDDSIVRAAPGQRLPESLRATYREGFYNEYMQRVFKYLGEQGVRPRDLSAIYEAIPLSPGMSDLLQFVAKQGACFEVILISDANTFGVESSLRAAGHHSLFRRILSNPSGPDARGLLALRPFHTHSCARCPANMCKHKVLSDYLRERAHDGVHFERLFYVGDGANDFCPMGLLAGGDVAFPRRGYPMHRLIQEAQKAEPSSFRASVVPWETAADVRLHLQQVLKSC

[11] = molecular target: Voltage-dependent T-type calcium channel subunit alpha-1H (Homo sapiens, UniProt O95180); test: human CACNA1H calcium influx blockade – cell-based, synthetic library set 1, calcium flux (AID 493022); format: functional
Chain of Voltage-dependent T-type calcium channel subunit alpha-1H (O95180 whole entry): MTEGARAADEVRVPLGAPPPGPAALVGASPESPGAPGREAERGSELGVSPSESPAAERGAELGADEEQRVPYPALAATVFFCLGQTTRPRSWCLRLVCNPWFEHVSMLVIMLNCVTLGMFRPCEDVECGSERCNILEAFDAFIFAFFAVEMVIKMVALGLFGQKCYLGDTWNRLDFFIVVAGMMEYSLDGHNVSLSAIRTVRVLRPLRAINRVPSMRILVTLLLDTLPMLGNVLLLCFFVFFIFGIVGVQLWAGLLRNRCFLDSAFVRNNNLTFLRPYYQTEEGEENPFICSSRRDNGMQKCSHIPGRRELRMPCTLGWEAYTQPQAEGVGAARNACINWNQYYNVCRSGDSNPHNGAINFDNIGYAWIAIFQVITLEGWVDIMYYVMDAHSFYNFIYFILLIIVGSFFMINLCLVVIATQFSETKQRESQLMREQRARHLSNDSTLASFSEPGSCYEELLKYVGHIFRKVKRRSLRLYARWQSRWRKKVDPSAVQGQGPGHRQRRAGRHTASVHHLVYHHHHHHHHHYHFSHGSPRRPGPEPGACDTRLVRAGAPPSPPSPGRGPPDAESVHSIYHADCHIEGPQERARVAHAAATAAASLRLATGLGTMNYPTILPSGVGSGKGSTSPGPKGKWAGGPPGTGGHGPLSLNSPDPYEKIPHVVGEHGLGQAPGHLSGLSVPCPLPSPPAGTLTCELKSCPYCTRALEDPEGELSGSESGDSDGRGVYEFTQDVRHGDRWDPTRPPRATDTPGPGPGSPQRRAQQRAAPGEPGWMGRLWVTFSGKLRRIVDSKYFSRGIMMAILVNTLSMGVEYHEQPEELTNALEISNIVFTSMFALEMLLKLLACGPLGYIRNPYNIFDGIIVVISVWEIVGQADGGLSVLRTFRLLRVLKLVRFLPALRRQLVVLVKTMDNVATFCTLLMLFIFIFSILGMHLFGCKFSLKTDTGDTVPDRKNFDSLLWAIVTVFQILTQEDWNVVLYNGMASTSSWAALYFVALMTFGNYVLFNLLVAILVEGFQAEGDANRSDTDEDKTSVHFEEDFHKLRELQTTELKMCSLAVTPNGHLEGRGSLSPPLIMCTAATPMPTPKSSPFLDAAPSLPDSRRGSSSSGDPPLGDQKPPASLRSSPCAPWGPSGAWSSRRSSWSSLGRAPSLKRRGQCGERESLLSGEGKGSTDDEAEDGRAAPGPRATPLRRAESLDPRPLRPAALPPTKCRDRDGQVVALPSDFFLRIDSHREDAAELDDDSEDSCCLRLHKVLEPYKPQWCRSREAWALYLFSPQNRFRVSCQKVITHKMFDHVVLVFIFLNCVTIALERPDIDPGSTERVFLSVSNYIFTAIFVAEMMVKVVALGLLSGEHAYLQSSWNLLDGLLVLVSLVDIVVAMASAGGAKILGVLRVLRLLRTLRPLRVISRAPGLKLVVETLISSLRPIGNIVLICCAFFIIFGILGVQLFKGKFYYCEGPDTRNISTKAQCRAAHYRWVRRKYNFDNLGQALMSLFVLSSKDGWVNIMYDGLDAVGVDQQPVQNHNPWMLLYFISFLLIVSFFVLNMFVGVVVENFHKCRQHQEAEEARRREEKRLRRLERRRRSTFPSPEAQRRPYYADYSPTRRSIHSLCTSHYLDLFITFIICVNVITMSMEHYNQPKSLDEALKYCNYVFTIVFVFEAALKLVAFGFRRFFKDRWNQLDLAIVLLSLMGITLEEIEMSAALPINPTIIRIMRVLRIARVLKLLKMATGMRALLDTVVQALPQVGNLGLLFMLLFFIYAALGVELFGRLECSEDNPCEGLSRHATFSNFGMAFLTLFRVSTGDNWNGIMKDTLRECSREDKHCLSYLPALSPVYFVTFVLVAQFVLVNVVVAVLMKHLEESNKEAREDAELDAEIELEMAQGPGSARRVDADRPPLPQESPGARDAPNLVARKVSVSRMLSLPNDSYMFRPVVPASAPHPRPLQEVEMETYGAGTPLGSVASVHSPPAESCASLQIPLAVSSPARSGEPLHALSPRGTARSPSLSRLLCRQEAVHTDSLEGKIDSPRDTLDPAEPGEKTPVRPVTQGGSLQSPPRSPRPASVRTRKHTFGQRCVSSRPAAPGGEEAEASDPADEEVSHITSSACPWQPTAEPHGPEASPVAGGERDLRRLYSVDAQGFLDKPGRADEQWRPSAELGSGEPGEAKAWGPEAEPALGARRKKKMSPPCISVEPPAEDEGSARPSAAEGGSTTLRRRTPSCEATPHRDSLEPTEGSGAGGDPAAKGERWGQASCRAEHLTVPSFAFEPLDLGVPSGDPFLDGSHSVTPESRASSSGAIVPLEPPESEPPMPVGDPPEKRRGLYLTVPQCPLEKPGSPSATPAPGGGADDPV

Compound: O=[N+]([O-])c1cc(S(=O)(=O)N2CCCCCC2)ccc1Cl
IC50 [1]: 2.88 µM (active)
IC50 [2]: 8.01 µM (active)
IC50 [3]: 10.1 µM (inactive)
IC50 [4]: 5.8 µM (active)
AC50 [5]: > 52 µM (inactive)
AC50 [6]: > 52 µM (inactive)
AC50 [7]: > 52 µM (inactive)

IC50 [8]: > 50 µM (inactive)
Compound: COCCn1nnnc1C(c1cc2ccc(C)cc2[nH]c1=O)N(Cc1ccco1)Cc1cccs1 (stereo unspecified)

IC50 [9]: 2.14 µM (active)
IC50 [10]: 0.233 µM (active)
Compound: O=c1c2c([N+](=O)[O-])cc([N+](=O)[O-])cc2sn1-c1ccc(OC(F)(F)Cl)cc1

EC50 [11]: 1.8 µM (active)
Compound: O=C(COc1ccccc1F)Nc1nnc(-c2ccc3ccccc3c2)o1
